Assay results: patent US20030096311A1, “Screening method for compounds” (priority 2000, published 2003)

Columns and labels:
[1] = biological target: T1, IFN-γ (Homo sapiens, UniProt P01579); experiment: ELISA detection of IFN-γ after overnight cell-free incubation with BP; assay type: binding; conditions: overnight with BP 500 μg/ml
T1 sequence (P01579 24-161 limits assumed): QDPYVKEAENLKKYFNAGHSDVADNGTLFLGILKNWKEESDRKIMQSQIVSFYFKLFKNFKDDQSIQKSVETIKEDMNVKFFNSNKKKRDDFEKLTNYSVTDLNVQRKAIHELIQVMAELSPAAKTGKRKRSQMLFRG
Procedure: The generation of PBMC supernatants and RNA used for this method were prepared as follows. PBMC ([…]) were incubated in RPMI-1640 medium containing TCH (ICN) with or without PHA (Sigma, 2.5 μg/ml). At each time point, samples were centrifuged for 5 min at 400 g, the supernatants collected and analyzed of IFN-γ by ELISA (IDS, Boldon, UK).
Purified recombinant IFN-γ or cell-free supernatants from stimulated PBMC were incubated overnight with BP (500 μg/ml), then assayed by ELISA, Supernatant 1, PBMC stimulated for 20 hours with IL-2; supernatant 2, PBMC stimulated for 43 hours with IL-2; supernatant 3, PBMC stimulated for 43 hours with PHA.

[2] = biological target: T2, IL-4 (Homo sapiens, UniProt P05112); experiment: Western blot with anti-BP antibody: comparative study with IL-4; assay type: binding; conditions: IL-4 in place of IFN-γ; compared with IFN-γ
T2 sequence (P05112 25-153): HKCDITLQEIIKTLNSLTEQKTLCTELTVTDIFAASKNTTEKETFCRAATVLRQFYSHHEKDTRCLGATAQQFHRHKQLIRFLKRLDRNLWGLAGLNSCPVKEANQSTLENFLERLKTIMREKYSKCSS
Procedure: (§1) SDS-PAGE and Western Blotting techniques using for this method were performed as follows. Carrier-free recombinant human IFN-γ (PeproTech, London, UK) was made to 10 μg/ml and incubated overnight with or without BP (final concentrations 25, 5, 0.5 mg/ml). At the end of the incubation period, 5×loading buffer was added and 20 μl of each sample loaded onto SDS-polyacrylamide gels. The gels were then analyzed by Western blotting, using a rabbit polyclonal anti-BP antibody. A comparative study was conducted using IL-4 in place of IFN-γ.
(§2) Carrier-free recombinant human IFN-γ (PeproTech, London, UK) were made to 10 μg/ml and incubated overnight with or without Benzyl Penicillin (BP) (final concentrations: 25, 5, 0.5 mg/ml). At the end of the incubation period, 5×loading buffer was added and 20 μl of each sample loaded onto SDS-polyacrylamide gels. For all samples, aliquots were then analyzed by Western blotting, using a rabbit polyclonal anti-BP antibody. A comparative study was conducted using IL-4 in place of IFN-γ.

[3] = biological target: T3, IFN-γ (Homo sapiens, UniProt P01579); experiment: IFN-γ induction of MHC class II DR on peripheral blood monocytes after BP pre-incubation; assay type: cell-based; conditions: IFN-γ 1 μg/ml pre-incubated overnight with various concentrations of BP; HMC-1 pulsed, co-cultured with PBM
T3 sequence (P01579 24-166): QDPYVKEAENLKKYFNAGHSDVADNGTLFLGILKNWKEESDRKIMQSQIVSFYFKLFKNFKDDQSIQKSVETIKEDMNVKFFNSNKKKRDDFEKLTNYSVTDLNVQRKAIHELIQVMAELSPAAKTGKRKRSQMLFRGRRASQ
Procedure: Referring now to FIG. 2, there is shown a graph illustrating the results of a determination of whether the effect of conjugation or interaction of the substance, BP, with IFN-γ has an effect on IFN-γ activity. In summary, IFN-γ was tested for induction of MHC class II DR on human peripheral blood monocytes (PBM) as follows.
IFN-γ (1 μg/ml) was incubated overnight with various concentrations of BP. HMC-1 cells were pulsed with or without IFN-γ (10 ng/ml), BP, or BP-treated IFN-γ, for 30 min and washed 3 times in PBS. The cells were resuspended in IFS and co-cultured (2×10^5) overnight with PBM (2×10^5) in a total volume of 200 μl in polypropylene tubes (Falcon). Six tubes were set up for each HMC-1 treatment.

[4] = biological target: T3, IFN-γ; experiment: IFN-γ mediated up-regulation of MCP-1 mRNA in A549 cells (RNase protection); assay type: cell-based
[5] = biological target: T3, IFN-γ; experiment: Western blot with anti-BP antibody: conjugation of BP to IFN-γ; assay type: binding; set-up: purchased PeproTech, London, UK; conditions: IFN-γ 10 μg/ml overnight with BP 25, 5, 0.5 mg/ml
Procedure: as §1
Referring now to FIG. 1, there is shown a Western blot illustrating the conjugation of BP to or interaction of BP to IFN-γ. FIG. 1 illustrates a method by which conjugation or interaction of a substance with a cytokine, namely IFN-γ, can be determined.
as §2

## CC1(C)S[C@@H]2[C@H](NC(=O)Cc3ccccc3)C(=O)N2[C@H]1C(=O)O [BP, benzyl penicillin]
[1]; PBMC supernatant 1 (IL-2, 20 hours), without BP 152
  IFN-γ (pg/ml) detected with BP: 0 pg/mL
[1]; PBMC supernatant 2 (IL-2, 43 hours), without BP 389
  IFN-γ (pg/ml) detected with BP: 0 pg/mL
[1]; PBMC supernatant 3 (PHA, 43 hours), without BP >400
  IFN-γ (pg/ml) detected with BP: 92 pg/mL
[1]; recombinant IFN-γ 200 pg/ml, without BP 192
  IFN-γ (pg/ml) detected with BP: 13 pg/mL
[1]; recombinant IFN-γ 1000 pg/ml, without BP 1015
  IFN-γ (pg/ml) detected with BP: 70 pg/mL
[2]
  conjugation to IL-4: conjugates to IL-4, though to a substantially lesser degree than to IFN-γ
[3]
  IFN-γ bioactivity (increase in DR median fluorescence on PBM): reduced its bioactivity in a concentration dependent manner
[4]; BP mixed with IFN-γ immediately before addition to A549 cells, lanes 10-12
  induction of MCP-1 mRNA by IFN-γ: less marked inhibiting effect
[4]; IFN-γ pre-incubated overnight with BP (20 or 10 mg/ml), A549 cells, 2 hours, lanes 4-6
  induction of MCP-1 mRNA by IFN-γ: inhibited induction of MCP-1 mRNA
[5]
  conjugation to IFN-γ: conjugates to IFN-γ
